The values that follow come from patent US20250057858A1, “COMPOSITIONS AND METHODS FOR TREATING NEUROLOGICAL DISORDERS WITH COMBINATION PRODUCTS” (Neurotech International Ltd, priority 2021, published 2025).

Data set [1] deals with cells in an excitotoxic cell injury paradigm. Description: Cell death in an excitotoxic cell injury paradigm. Format: cell-based. As for the experimental part:
Neuronal viability was quantified using MTT [3-(4,5-dimethylthiazol-2-yl-)-2,5-diphenyl-2H-tetrazolium bromide; Sigma]. NTI164 treated celled were able to increase the number of “healthy” cells under basal conditions following short term glutamate exposure. Cellular excitotoxicity was achieved via glutamate activation (3 mM). NTI164 was able to stimulate cell growth after short term glutamate induced “insult”.

The subject of the next data set is TNF-alpha. Description: Multiplex cytokine assay, TNF-alpha, microglial cells (Example 4). Format: cell-based, human. The conditions noted are these: 2 μg/ml. On the procedure: (§1) Multiplex Cytokine/Chemokine Assay: Microglia media harvested following treatment initiation was centrifuged briefly to remove particulates (300 g for 10 min). Cytokine and chemokine levels in the microglial media were measured using a Bio-Plex 200 with a 96-well magnetic plate assay according to the manufacturer's instructions (Bio-Rad). Cytokines and chemokines measured included IL-1α, IL-1β, IL-2, IL-6, IL-10, IL-12 (p70), IL-13, G-CSF, GM-CSF, IFNγ, TNFα, CXCL1 (KC), CCL2 (MCP-1), and CCL5 (RANTES). All samples were run in duplicate and data were analyzed with the Bio-Plex Manager software.
(§2) 500 mg of dried plant material of NTI164 is suspended in 20 ml of absolute ethanol (using 50 ml blue top falcon tubes appropriate for centrifugation) and stirred/shaken vigorously for 60 seconds. The tubes are then placed in a sonication bath for 10 mins at 35-40 C. Upon completion of the sonication samples are then placed in a tray shaker (200 rpm) for 30 minutes at room temperature. Once completed the samples are then centrifuged at 4400 rpm for 5 minutes. The supernatant is collected for testing and development.
(§3) Units used to describe treatments for test products and concentrations for NTI164. • a. 1/1000 dilution of extract—10 µL (stock material is NTI164—10 µL, which equates to 2 μg/ml of CBDA) • b. […]

A further data set deals with IL-12. Description: Multiplex cytokine assay, IL-12, microglial cells (Example 4). The format is cell-based, human. The conditions noted are these: 2 μg/ml. As for the experimental part:
as §1, §2, §3

Data set [2] relates to COX-2. Description: COX-2 immunohistochemistry in human derived microglial cells (Example 4). The conditions noted are these: for COX-2 expression (Avg +/− SEM): 2 μg/ml, N=9. Format: cell-based. On the procedure: Immunohistochemistry (Protein Level) Assay: Cells were fixed for 10 min with 4% paraformaldehyde (PFA) in PBS. After 3×5 minutes washing with PBS, cells were incubated with primary antibodies (anti-COX2) 1:1000 overnight at 4° C., and after 3×5 minutes washing in PBS, cells were then incubated in appropriate fluorescent secondary antibody 1:250 (Invitrogen) for 2 hours at room temperature. After a final wash, as previous, cells nuclei were stained with DAPI in the mounting media. Photomicrographs were taken of the cells in three fields of view per well from duplicate wells and analysed using Fiji for area coverage of each marker.
as §2
Units used to describe treatments for test products and concentrations for NTI164. • a. 1/1000 dilution of extract—10 µL (stock material is NTI164—10 µL, which equates to 2 μg/ml of CBDA) • b. 1/3000 dilution of extract—3 µL (stock material is NTI164—3 µL, which equates to […] of CBDA) • c. 1/10000 dilution of extract—1 µL (stock material is NTI164—1 µL, which equates to 0.1 μg/ml of CBDA)
For the CBD sample, a pure standard (in powder form) was used. CBD 98% isolate was purchased as a reference standard from LGC Standards (London UK) (CAS No. 13956-29-1). The CBD standard reference was prepared at concentration of 1 mg/ml (in acetonitrile). CBD dilutions were made in acetonitrile as follows: 2 μg/ml; 6 μg/ml; and 0.1 μg/ml.
The final concentration of NTI164 (CBDA equivalent) and CBD that was used in these studies was 2 μg/ml.

Data set [3] relates to COX-2. Briefly: COX-2 protein, NTI164 plus prednisone (Example 8). Particulars: PDN 5 uM; NTI164 7.5 ug/ml; Interleukin & Interferon activation =1. Format: cell-based.
Protocol: Cells were fixed for 10 min with 4% paraformaldehyde (PFA) in PBS. After 3×5 minutes washing with PBS, cells were incubated with primary antibodies. (anti-COX2) 1:1000 overnight at 4° C., and after 3×5 minutes washing in PBS, cells were then incubated in appropriate fluorescent secondary antibody 1:250 (Invitrogen) for 2 hours at room temperature. After a final wash, as previous, cells nuclei were stained with DAPI in the mounting media. Photomicrographs were taken of the cells in three fields of view per well from duplicate wells and analysed using Fiji for area coverage of each marker.
Treatment groups include: • (1) Control: PBS Buffer • (2) Positive control: Inflammatory stimulation by Interferon gamma and Interleukin-1B activation Prednisone (PDN) concentration 5 uM • (3) Combination therapy: Prednisone (PDN) 5 uM+NTI164 concentration 7.5ug/ml
Result Analysis: Calculated as % reduction in inflammation, PDN versus Combination therapy (prednisone 5 uM+NTI164 concentration 7.5ug/ml). Student's t-test was used for statistical analysis.
The test system of another data set is TNFα. Briefly: TNFα in microglial culture media, NTI164 plus psylocibin (Example 9). Format: cell-based. Particulars: PBS Control 1.00, Positive activation I&I 10.67. On the procedure: Microglia media harvested following treatment initiation was centrifuged briefly to remove particulates (300 g for 10 min). The level of TNFα in the microglial culture media was measured using a Bio-Plex 200 with a 96-well magnetic plate assay according to the manufacturer's instructions (Bio-Rad). The samples were run in duplicate that were averaged for analysis. At least three samples per group were run.

The mark [4] stands for this setting: Interleukin and Interferon activation.
The mark [5] stands for this setting: exposure 1 hour after inflammatory insult.
Where [6] appears, read: exposure 1 hour prior to inflammatory insult.

Regarding `C=C(C)[C@@H]1CCC(C)=C[C@H]1c1c(O)cc(CCCCC)cc1O` [CBD, cannabidiol], in data set [1], the “cell death / toxicity” value is on record as “toxic”. Moreover, the “Statistical Significance Reduction Compared to Control Alone (P), TNF-alpha” value with TNF-alpha is “= 0.0005”. For the same compound, the “TNF-alpha, Average” value in the data set with TNF-alpha (setting [4]) is listed as 71.13. For the same compound, in the data set on IL-12, the “Statistical Significance Reduction Compared to Control Alone (P), IL-12” value is listed as “= 0.008”. Moreover, the “IL-12, Average” value in the data set with IL-12 (setting [4]) is recorded as 84.40. In the data set on COX-2 [2] (setting [5]), the “P, positive control vs treatment (COX-2)” value is on record as “P = 0.0566” and the “COX-2 expression (Avg +/− SEM)” value is given as 76.32 +/− 7.95 (SEM). Further, in the data set on COX-2 [2] (setting [6]), the “P, positive control vs treatment (COX-2)” value is reported as “P = 0.3237” and the “COX-2 expression (Avg +/− SEM)” value was 84.82 +/− 7.65 (SEM).

In the case of `C[C@]12C=CC(=O)C=C1CC[C@@H]1[C@@H]2C(=O)C[C@@]2(C)[C@H]1CC[C@]2(O)C(=O)CO` [PDN, Prednisone], the “COX-2 Protein” value in the data set on COX-2 [3] was determined as 0.888.

For `CN(C)CCc1c[nH]c2cccc(OP(=O)(O)O)c12` [SubP (Psylocibin), Psylocibin], the “TNF-ALPHA ASSESSMENTS RESULTS” value in the data set on TNFα (1 ug/ml) worked out at 4.87; in the data set on TNFα (5 ug/ml), 9.17.
